According to US20090238808A1, “Process for the identification of novel enzyme interacting compounds” (priority 2005, published 2009):

What was measured:
Assay in all cases: Kinobeads elution with test compound, mouse brain lysate, MS
Format in all cases: binding
Conditions in all cases: kinase released from kinobeads by specific elution
CDK5 = CDK5 (Mus musculus, UniProt P49615)
Procedure: (§1) This example illustrates competitive elution of proteins bound to kinobeads with non-modified test compounds (see particularly the fourth aspect of the invention). The kinobeads (as described in example 1) were contacted with mouse brains lysate, bound proteins were eluted with various test compounds and the released proteins were analysed by mass spectrometry.
(§2) The kinobeads were contacted with mouse brain lysate under conditions that allow the binding of the proteins in the lysate to the ligands. The binding conditions were close to physiological by choosing suitable buffer conditions preserving the function of the proteins. After removing non-captured proteins through a gentle washing procedure the bound proteins were contacted with a test compound for protein elution.
(§3) Various test compounds (see section 2.7) were used to release bound proteins following these steps:
(§4) 1. Resuspend beads with bound proteins (section 2.4) in 1×DP buffer/0.2% NP-40 as 1:3 slurry (volume/volume). 2. Transfer 20 μl the 1:3 slurry into MoBiTech columns (equivalent to 5 μl of beads). 3. Place the column into an Eppendorf tube and centrifuge it for 15 seconds at 800 rpm at 4° C. Close columns with lower lid. 4. Add 10 μl elution buffer containing 1.0 mM of the test compound (concentration ranges of 0.1 to 1.0 mM are suitable). As a control use elution buffer containing 2% DMSO or 2% DMF dependent on the solvent used for dissolving the test compound. Close column with upper lid. 5. Incubate for 30 minutes at 4° C. in an Eppendorf incubator at 700 rpm. 6. Open column (first top, then bottom), put column back into siliconized tube (SafeSeal Microcentrifuge Tubes, cat. no 11270, Sorenson BioScience, Inc.). To harvest the eluate centrifuge 2 minutes at 2.000 rpm in table top centrifuge at room temperature. The typical volume of the eluate is approximately 15 μl. 7. Add 5 μl 4× NuPAGE SDS Sample Buffer (Invitrogen, NP0007) containing 100 mM DTT (DTT has to be added just prior to use). 8. Incubate for 30 minutes at 50° C. 9. Add 1/10 volume of 200 mg/ml iodoacetamide, incubate for 30 min at room temperature, protect from light. This reaction leads to the alkylation of cysteines for mass spectrometry. 10. Before loading samples onto the gel, centrifuge samples for 5 minutes at 15.000 rpm in order to remove precipitates. 11. For protein separation apply 10 μl sample to NuPAGE 4-12% Bis-Tris gel (Invitrogen, NPO335). 2.6 Preparation of Stock Solutions used in this Protocol
(§5) Search criteria varied depending on which mass spectrometer was used for the analysis.

CSK = CSK (Mus musculus, UniProt P41241)
Chain of CSK (P41241 whole entry): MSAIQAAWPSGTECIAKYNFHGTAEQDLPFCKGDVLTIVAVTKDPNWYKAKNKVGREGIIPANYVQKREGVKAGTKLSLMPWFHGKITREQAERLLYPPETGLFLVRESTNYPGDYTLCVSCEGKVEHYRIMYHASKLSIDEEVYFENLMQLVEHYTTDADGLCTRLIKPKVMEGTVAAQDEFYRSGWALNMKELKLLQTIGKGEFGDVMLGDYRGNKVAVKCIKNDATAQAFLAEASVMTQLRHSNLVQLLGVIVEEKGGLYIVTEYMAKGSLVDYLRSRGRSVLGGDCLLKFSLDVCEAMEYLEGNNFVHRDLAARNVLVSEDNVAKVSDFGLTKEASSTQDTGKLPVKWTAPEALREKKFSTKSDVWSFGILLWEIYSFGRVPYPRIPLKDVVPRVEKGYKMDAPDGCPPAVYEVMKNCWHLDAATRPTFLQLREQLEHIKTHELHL
Procedure: as §1, §2, §3, §4, §5

CaMK2b = CaMK2b (Mus musculus, UniProt P28652)
Chain of CaMK2b (P28652 whole entry): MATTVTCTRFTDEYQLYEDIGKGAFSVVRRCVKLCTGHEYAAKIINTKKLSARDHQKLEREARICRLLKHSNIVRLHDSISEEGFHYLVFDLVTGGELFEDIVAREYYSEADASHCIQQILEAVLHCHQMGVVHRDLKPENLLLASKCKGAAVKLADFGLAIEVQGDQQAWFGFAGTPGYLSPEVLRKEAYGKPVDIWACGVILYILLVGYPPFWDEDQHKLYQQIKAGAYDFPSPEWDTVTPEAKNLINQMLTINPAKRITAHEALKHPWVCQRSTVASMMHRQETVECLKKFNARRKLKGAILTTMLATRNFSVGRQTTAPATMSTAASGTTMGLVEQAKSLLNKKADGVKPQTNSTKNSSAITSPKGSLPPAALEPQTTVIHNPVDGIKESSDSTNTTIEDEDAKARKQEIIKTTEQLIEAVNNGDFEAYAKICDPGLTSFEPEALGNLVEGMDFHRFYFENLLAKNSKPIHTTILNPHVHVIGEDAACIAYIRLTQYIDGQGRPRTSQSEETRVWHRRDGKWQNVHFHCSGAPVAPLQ
Procedure: as §1, §2, §3, §4, §5

CaMK2d = target: T1, CaMK2d (Mus musculus, UniProt Q6PHZ2)
T1 construct: […]; from tissue; host or cells: mouse brain
T1 sequence (Q6PHZ2 whole entry): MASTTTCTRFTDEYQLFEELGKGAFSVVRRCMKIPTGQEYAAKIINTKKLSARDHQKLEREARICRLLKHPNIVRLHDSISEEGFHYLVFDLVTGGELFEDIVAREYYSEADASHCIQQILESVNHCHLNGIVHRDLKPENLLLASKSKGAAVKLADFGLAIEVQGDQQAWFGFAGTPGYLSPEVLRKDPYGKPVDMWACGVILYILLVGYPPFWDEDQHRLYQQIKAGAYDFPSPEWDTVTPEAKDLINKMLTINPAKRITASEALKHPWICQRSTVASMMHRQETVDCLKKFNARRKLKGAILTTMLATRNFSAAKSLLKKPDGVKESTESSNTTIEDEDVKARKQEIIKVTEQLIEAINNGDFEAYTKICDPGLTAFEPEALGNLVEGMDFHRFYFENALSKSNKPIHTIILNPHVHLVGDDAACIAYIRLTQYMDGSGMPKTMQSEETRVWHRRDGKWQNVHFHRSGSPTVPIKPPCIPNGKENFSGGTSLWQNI
Procedure: as §1, §2, §3, §4, §5

JNK1 = target: T2, JNK1 (Mus musculus, UniProt Q91Y86)
T2 construct: from tissue; host or cells: mouse brain
T2 sequence (Q91Y86 whole entry): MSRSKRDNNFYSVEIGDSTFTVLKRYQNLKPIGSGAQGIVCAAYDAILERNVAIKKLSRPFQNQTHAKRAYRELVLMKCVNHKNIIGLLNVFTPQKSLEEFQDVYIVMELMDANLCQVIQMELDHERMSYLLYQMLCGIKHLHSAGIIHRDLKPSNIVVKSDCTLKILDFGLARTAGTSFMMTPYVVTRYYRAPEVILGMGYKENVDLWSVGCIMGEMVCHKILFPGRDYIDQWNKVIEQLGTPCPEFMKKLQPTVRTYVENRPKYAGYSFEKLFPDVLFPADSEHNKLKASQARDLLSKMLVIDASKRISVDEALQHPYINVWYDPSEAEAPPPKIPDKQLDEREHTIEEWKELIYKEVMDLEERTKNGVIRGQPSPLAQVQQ
Procedure: as §1, §2, §3, §4, §5

MAP2K1 = target: T3, MAP2K1 (Mus musculus, UniProt P31938)
T3 construct: from tissue; host or cells: mouse brain
T3 sequence (P31938 whole entry): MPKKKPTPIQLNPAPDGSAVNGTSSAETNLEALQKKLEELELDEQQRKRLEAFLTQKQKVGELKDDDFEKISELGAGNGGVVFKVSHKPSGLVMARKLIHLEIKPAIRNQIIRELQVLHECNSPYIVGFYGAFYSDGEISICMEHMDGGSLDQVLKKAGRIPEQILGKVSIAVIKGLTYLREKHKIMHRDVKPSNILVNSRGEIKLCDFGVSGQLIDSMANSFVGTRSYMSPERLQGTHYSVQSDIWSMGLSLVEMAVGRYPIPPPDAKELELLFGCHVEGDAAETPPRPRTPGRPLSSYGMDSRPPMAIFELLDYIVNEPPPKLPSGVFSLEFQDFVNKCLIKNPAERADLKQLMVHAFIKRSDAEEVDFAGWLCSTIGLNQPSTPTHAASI
Procedure: as §1, §2, §3, §4, §5

PYK2 = target: T4, PYK2 (Mus musculus, UniProt Q9QVP9)
T4 construct: from tissue; host or cells: mouse brain
T4 sequence (Q9QVP9 whole entry): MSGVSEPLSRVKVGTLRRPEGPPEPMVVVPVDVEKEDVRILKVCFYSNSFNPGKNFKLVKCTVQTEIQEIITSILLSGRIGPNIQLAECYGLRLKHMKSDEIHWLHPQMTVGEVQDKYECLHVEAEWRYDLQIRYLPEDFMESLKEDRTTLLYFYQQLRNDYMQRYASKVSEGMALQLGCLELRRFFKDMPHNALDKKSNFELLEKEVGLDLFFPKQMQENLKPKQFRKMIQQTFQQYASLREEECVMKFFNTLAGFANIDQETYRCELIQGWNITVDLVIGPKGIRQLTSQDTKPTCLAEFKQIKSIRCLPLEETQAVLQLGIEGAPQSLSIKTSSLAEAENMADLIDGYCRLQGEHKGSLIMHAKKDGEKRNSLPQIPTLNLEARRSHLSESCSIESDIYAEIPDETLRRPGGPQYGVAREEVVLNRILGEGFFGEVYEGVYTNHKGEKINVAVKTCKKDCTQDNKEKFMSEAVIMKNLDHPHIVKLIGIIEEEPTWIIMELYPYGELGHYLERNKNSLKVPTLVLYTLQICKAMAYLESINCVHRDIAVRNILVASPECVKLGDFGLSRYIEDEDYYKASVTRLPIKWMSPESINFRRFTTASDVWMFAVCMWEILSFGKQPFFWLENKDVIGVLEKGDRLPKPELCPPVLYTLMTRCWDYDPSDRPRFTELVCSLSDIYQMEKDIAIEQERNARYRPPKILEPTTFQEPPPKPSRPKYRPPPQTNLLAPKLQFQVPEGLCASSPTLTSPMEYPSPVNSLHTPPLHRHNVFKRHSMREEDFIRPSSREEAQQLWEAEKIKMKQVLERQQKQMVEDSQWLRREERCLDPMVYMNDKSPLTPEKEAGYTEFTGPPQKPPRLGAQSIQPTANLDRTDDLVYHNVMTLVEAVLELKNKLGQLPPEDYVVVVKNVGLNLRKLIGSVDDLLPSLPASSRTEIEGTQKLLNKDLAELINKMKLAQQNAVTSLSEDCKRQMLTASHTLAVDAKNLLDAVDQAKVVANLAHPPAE
Procedure: as §1, §2, §3, §4, §5

RSK3 (Mus musculus) = tested on: T5, RSK3 (Mus musculus)
T5 construct: from tissue; host or cells: mouse brain
T5 sequence (P18653 whole entry): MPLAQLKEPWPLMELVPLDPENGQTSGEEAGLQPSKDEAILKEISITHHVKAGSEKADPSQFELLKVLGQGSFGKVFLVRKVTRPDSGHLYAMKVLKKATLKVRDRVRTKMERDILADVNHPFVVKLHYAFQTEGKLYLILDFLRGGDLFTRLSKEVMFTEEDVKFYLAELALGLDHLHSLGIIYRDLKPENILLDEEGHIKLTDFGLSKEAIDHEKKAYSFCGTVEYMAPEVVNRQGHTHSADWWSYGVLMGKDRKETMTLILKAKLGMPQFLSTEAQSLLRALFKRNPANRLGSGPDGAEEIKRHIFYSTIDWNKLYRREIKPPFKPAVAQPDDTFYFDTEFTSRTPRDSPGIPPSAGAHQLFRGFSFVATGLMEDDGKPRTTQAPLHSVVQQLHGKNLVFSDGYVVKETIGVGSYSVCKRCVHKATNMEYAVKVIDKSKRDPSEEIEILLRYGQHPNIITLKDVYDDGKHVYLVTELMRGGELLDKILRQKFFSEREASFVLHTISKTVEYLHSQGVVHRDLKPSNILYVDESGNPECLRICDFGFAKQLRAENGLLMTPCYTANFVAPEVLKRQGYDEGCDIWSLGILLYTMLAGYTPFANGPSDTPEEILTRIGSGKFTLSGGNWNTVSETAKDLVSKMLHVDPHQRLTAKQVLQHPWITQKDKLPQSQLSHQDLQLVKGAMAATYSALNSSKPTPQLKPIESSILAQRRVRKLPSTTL
Procedure: as §1, §2, §3, §4, §5

SRC = target: T6, SRC (Mus musculus, UniProt P05480)
T6 construct: from tissue; host or cells: mouse brain
T6 sequence (P05480 whole entry): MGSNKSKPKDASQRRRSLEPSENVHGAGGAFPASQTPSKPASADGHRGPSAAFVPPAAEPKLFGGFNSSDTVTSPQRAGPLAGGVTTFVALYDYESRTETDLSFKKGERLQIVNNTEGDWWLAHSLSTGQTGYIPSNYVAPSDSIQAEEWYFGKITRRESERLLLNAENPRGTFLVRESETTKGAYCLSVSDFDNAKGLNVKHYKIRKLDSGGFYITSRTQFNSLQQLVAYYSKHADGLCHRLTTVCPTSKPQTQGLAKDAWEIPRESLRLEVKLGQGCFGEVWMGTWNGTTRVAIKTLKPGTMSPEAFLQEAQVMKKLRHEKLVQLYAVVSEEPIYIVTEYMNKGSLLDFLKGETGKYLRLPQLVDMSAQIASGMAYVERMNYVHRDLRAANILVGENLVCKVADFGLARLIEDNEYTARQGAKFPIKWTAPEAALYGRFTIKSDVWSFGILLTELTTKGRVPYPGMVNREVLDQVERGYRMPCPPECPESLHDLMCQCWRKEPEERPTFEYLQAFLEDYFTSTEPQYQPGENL
Procedure: as §1, §2, §3, §4, §5

GAK = target: T7, GAK (Mus musculus, UniProt Q99KY4)
T7 construct: from tissue; host or cells: mouse brain
T7 sequence (Q99KY4 1-1305): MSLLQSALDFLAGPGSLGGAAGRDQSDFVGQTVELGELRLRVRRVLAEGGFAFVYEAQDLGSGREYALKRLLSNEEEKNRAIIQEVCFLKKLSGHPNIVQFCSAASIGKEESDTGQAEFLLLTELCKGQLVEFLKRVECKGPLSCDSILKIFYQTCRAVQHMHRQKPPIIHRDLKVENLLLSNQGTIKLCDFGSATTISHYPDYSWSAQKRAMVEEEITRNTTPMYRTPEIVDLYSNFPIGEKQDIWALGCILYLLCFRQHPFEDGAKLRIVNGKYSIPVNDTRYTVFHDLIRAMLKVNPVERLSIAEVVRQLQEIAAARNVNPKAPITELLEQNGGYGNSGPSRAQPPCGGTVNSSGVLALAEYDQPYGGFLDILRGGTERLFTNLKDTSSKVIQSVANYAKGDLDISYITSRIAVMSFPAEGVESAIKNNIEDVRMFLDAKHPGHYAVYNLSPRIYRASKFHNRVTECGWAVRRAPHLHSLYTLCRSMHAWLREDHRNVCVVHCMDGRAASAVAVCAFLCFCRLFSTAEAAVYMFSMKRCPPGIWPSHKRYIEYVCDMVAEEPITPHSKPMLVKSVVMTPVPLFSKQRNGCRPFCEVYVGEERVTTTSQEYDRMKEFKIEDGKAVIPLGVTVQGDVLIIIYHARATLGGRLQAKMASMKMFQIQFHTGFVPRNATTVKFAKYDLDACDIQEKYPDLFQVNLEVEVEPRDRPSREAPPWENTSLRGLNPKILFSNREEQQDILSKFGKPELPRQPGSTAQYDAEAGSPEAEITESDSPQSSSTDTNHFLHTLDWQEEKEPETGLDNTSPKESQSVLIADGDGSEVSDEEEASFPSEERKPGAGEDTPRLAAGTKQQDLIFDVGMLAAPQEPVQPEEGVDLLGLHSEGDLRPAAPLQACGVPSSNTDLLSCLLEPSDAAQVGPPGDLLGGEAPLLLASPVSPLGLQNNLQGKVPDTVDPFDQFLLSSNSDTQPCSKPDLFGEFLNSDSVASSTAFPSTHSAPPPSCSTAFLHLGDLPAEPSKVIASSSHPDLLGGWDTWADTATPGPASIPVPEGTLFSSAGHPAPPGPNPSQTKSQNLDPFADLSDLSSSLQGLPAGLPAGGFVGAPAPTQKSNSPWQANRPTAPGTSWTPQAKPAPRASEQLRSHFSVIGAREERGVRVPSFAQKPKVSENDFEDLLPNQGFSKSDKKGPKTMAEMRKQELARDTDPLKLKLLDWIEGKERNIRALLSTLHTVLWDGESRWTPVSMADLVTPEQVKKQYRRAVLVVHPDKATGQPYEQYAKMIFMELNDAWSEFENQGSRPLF
Procedure: as §1, §2, §3, §4, §5

Chain of CDK5 (P49615 whole entry): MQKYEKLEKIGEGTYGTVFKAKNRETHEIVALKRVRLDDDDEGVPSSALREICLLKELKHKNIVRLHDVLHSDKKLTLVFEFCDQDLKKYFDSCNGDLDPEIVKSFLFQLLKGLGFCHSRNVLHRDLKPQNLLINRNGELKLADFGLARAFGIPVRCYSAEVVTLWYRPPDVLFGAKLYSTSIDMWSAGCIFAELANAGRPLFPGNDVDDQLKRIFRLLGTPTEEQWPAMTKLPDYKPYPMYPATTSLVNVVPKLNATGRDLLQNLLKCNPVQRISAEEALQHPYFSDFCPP

Row | Structure (SMILES) | mass spectrometry score, CDK5 (CDK5) | number of identified peptides, CDK5 (CDK5) | mass spectrometry score, CSK (CSK) | number of identified peptides, CSK (CSK) | mass spectrometry score, CaMK2b (CaMK2b) | number of identified peptides, CaMK2b (CaMK2b) | mass spectrometry score, CaMK2d (CaMK2d) | number of identified peptides, CaMK2d (CaMK2d) | mass spectrometry score, JNK1 (JNK1) | number of identified peptides, JNK1 (JNK1) | mass spectrometry score, MAP2K1 (MAP2K1) | number of identified peptides, MAP2K1 (MAP2K1) | mass spectrometry score, PYK2 (PYK2) | number of identified peptides, PYK2 (PYK2) | mass spectrometry score, RSK3 (RSK3 (Mus musculus)) | mass spectrometry score, SRC (SRC) | number of identified peptides, SRC (SRC) | mass spectrometry score, GAK (GAK) | number of identified peptides, GAK (GAK)
1 | CNC1CC2OC(C)(C1OC)n1c3ccccc3c3c4c(c5c6ccccc6n2c5c31)C(=O)NC4 (stereo not shown) [CZC9280] | 861 | 43 | 307 | 8 | 1182 | 72 | 822 | 40 | 457 | 16 | 49 | 2 | 1978 | 82 | 721 | 546 | 13 | – | –
2 | Cn1c(=O)c(-c2c(Cl)cccc2Cl)cc2cnc(Nc3ccc(CN)cc3)cc21 [CZC7324] | 462 | 11 | 809 | 19 | 499 | 14 | 328 | 7 | 448 | 17 | – | – | 1401 | 42 | 312 | 351 | 9 | 278 | 7
3 | CC(C)[C@H](CO)Nc1nc(Nc2ccc(C(=O)O)c(Cl)c2)c2ncn(C(C)C)c2n1 [Purvalanol B, reference compound] | 1086 | 41 | 492 | 12 | 679 | 16 | 473 | 12 | 311 | 10 | 78 | 2 | 1909 | 48 | 401 | 544 | 13 | – | –
4 | NCc1ccc(Nc2ncc(F)c(Nc3ccccc3)n2)cc1 [CZC00008004] | 794 | 27 | – | – | 685 | 30 | 444 | 11 | 590 | 48 | – | – | 1228 | 58 | – | – | – | 733 | 16
5 | CCCCCCCCCCCCOS(=O)(=O)[O-].[Na+] [SDS] | 604 | 21 | 365 | 15 | 615 | 75 | 434 | 36 | 389 | 47 | 90 | 4 | 809 | 39 | 107 | 419 | 25 | 166 | 8
